Experimental data reported in US20250281647A1, “STEALTH LIPID NANOPARTICLE COMPOSITIONS FOR CELL TARGETING” (Generation Bio Co., priority 2023, published 2025).

Target: T1, ASGPR (Homo sapiens, UniProt P07306)
T1 sequence (P07306 1-291): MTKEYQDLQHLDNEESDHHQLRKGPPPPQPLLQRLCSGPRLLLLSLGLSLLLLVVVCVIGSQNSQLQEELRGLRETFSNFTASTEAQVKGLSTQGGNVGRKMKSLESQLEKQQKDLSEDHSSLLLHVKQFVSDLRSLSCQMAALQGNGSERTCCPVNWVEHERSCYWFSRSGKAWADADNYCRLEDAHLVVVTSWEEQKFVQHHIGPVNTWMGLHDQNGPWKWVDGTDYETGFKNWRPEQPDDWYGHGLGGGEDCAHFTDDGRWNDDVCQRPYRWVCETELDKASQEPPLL
Test: Binding of targeting ligand formats to ASGPR
Conditions: read-out: dissociation constants (Kd)
Text: In this example, multiple targeting ligand formats with varying affinities to ASGPR and off target receptors were compared. […] The high degree of over modification refers to modifying each Fab with more than 1 SATA molecule leading to multiple points of PEG-Mal conjugation during the final phase of ctLNP formulation and conjugation.

SMILES: CC(=O)N[C@H]1C(O)O[C@H](CO)[C@H](O)[C@@H]1O (stereo partly shown) [GalNAc]
- Kd: ~30.7 nM
